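Dose response: 5 concentrations. Exposure: 48 h. Format: 96-well plates. Endpoint: linear interpolation; highest concentration if not reached. GI50 marks 50% less growth.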 Activity calls are given as the source filed them. Rule as the data show it: active = GI50 up to about 1.1 µM and inactive = higher.
What was measured:
Test in all cases: growth of human tumour cells (NCI), 48 h
A549 = system: A549
COLO 205 = system: COLO 205
EKVX = system: EKVX
HOP-92 = system: HOP-92
HT-29 = system: HT-29
IGROV-1 = system: IGROV-1
MDA-MB-231 = system: MDA-MB-231
NCI-H226 = system: NCI-H226
NCI-H522 = system: NCI-H522
NCI/ADR-RES = system: NCI/ADR-RES
OVCAR-5 = system: OVCAR-5
RXF 393 = system: RXF 393
SF-539 = system: SF-539
SK-MEL-2 = system: SK-MEL-2
SN12C = system: SN12C
T47D = system: T47D
UACC-62 = system: UACC-62
LOX IMVI = system: LOX IMVI
SK-MEL-5 = system: SK-MEL-5
Hs-578T = system: Hs-578T

Row | Compound | GI50 (A549) | GI50 (COLO 205) | GI50 (EKVX) | GI50 (HOP-92) | GI50 (HT-29) | GI50 (IGROV-1) | GI50 (MDA-MB-231) | GI50 (NCI-H226) | GI50 (NCI-H522) | GI50 (NCI/ADR-RES) | GI50 (OVCAR-5) | GI50 (RXF 393) | GI50 (SF-539) | GI50 (SK-MEL-2) | GI50 (SN12C) | GI50 (T47D) | GI50 (UACC-62) | GI50 (LOX IMVI) | GI50 (SK-MEL-5) | GI50 (Hs-578T)
1 | CC1(C)COC(c2ccccc2-c2ccccc2)=N1 | 59.2 µM (inactive) | > 100 µM (inactive) | 72.1 µM (inactive) | > 100 µM (inactive) | 83 µM (inactive) | 67.8 µM (inactive) | 56.6 µM (inactive) | > 100 µM (inactive) | 38.7 µM (inactive) | > 100 µM (inactive) | > 100 µM (inactive) | 70.5 µM (inactive) | > 100 µM (inactive) | > 100 µM (inactive) | > 100 µM (inactive) | 83.2 µM (inactive) | 54.6 µM (inactive) |  |  | 
2 | CCOC(=O)N[C@H]1CCc2cc(O)c(OC)c(OC)c2-c2ccc(SC)c(=O)cc21 | 0.0289 µM (active) | 0.141 µM (active) | 0.483 µM (active) | 0.0103 µM (active) | < 0.0135 µM (active) | 0.0479 µM (active) |  | 0.266 µM (active) | 0.0177 µM (active) |  | 0.614 µM (active) | < 0.01 µM (active) | 0.0137 µM (active) | < 0.0149 µM (active) | 0.046 µM (active) |  | < 0.0144 µM (active) | 0.0234 µM (active) | 0.0127 µM (active) | 
3 | CCOC(=O)C1C(c2ccccc2)=C(c2ccccc2)C(c2ccccc2)=C1c1ccccc1 | 33.7 µM (inactive) | > 100 µM (inactive) | > 88.3 µM (inactive) | 12.4 µM (inactive) | > 100 µM (inactive) | 29.2 µM (inactive) |  | > 39.2 µM (inactive) | 49.8 µM (inactive) |  | > 100 µM (inactive) | 15.3 µM (inactive) | 29.7 µM (inactive) | 26.9 µM (inactive) | 50.7 µM (inactive) |  | 19.3 µM (inactive) | 58.9 µM (inactive) | 46.7 µM (inactive) | 
4 | O=C(c1cccc2cc(O)ccc12)c1cn(CCN2CCOCC2)c2ccccc12 |  | 45.7 µM (inactive) | 28.1 µM (inactive) | 31.4 µM (inactive) | 20.7 µM (inactive) | 20.3 µM (inactive) | 19.5 µM (inactive) | 39.9 µM (inactive) | 30.3 µM (inactive) |  | 29.5 µM (inactive) | 21.8 µM (inactive) | > 100 µM (inactive) | 11 µM (inactive) | 31.8 µM (inactive) | 38.3 µM (inactive) | 17.7 µM (inactive) | 20.6 µM (inactive) | 40 µM (inactive) | 
5 | Cc1c(CN)c(C)c(CN)c(C)c1CN | > 100 µM (inactive) | > 100 µM (inactive) | > 100 µM (inactive) | > 100 µM (inactive) | > 100 µM (inactive) | > 100 µM (inactive) | > 100 µM (inactive) | > 100 µM (inactive) | 86.7 µM (inactive) | > 100 µM (inactive) | > 100 µM (inactive) |  | > 100 µM (inactive) | > 100 µM (inactive) | > 100 µM (inactive) |  |  | > 100 µM (inactive) | > 100 µM (inactive) | 
6 | CCN1C(=O)C/C(=C\C(C)=O)Nc2ccccc21 | > 100 µM (inactive) | > 100 µM (inactive) | > 100 µM (inactive) | > 100 µM (inactive) | > 100 µM (inactive) | > 100 µM (inactive) |  | > 100 µM (inactive) | > 100 µM (inactive) |  | > 100 µM (inactive) | > 100 µM (inactive) | > 100 µM (inactive) | > 100 µM (inactive) | 0.166 µM (active) |  | > 100 µM (inactive) | > 100 µM (inactive) | 10 µM (inactive) | 
7 | N/C(=N\n1c(=S)[nH]c2ccccc2c1=O)Nn1c(=S)[nH]c2ccccc2c1=O | > 100 µM (inactive) | 28.8 µM (inactive) | 67.6 µM (inactive) |  |  | 28.9 µM (inactive) | 53.3 µM (inactive) | 21.7 µM (inactive) | 13.3 µM (inactive) | 47.6 µM (inactive) | 80.4 µM (inactive) | 35.3 µM (inactive) | 18.9 µM (inactive) | 46.6 µM (inactive) |  | 23.4 µM (inactive) | 75 µM (inactive) | 18.8 µM (inactive) | 44.4 µM (inactive) | 
8 | O=C(N[C@H](CO)[C@H](O)c1ccc([N+](=O)[O-])cc1)C(Cl)Cl [CHLORAMPHENICOL] | > 100 µM (inactive) | > 100 µM (inactive) | > 100 µM (inactive) | 85.3 µM (inactive) | > 100 µM (inactive) | > 100 µM (inactive) | 47.8 µM (inactive) | > 100 µM (inactive) | > 100 µM (inactive) | > 100 µM (inactive) | > 100 µM (inactive) | > 100 µM (inactive) | > 100 µM (inactive) | > 100 µM (inactive) | > 100 µM (inactive) |  | > 100 µM (inactive) | > 100 µM (inactive) | > 100 µM (inactive) | 
9 | Cc1csc(N/C=C2\C(=O)Oc3ccccc3C2=O)n1 | 38.7 µM (inactive) | 35 µM (inactive) | 21.3 µM (inactive) | 17.9 µM (inactive) | 36 µM (inactive) | 24.7 µM (inactive) | 20.2 µM (inactive) | 24.2 µM (inactive) | 26.4 µM (inactive) | 35.7 µM (inactive) | 58.6 µM (inactive) |  | 26.9 µM (inactive) | 13.4 µM (inactive) |  |  | 24.6 µM (inactive) | 22.1 µM (inactive) | 23.9 µM (inactive) | 20.1 µM (inactive)
10 | O=C(Nc1nc2ncn(CCNCCn3cnc4nc(NC(=O)c5ccccc5)[nH]c(=O)c43)c2c(=O)[nH]1)c1ccccc1 | > 100 µM (inactive) | > 100 µM (inactive) | > 100 µM (inactive) | > 100 µM (inactive) | > 100 µM (inactive) | > 100 µM (inactive) |  | > 100 µM (inactive) | > 100 µM (inactive) |  | > 100 µM (inactive) | > 100 µM (inactive) | > 100 µM (inactive) | > 100 µM (inactive) | > 100 µM (inactive) |  | > 100 µM (inactive) | > 100 µM (inactive) | > 100 µM (inactive) | 
11 | COC(=O)CNC(=O)C(CSC(=O)OCC1c2ccccc2-c2ccccc21)NC(=O)CCC(NC(=O)OCC1c2ccccc2-c2ccccc21)C(=O)OC (stereo not given) | 14.5 µM (inactive) | 29.4 µM (inactive) | 54.3 µM (inactive) | 13.5 µM (inactive) |  | 17.8 µM (inactive) | 16.6 µM (inactive) | 99.1 µM (inactive) | 4.65 µM (inactive) | 41 µM (inactive) | 25.6 µM (inactive) | 16.8 µM (inactive) | 19.2 µM (inactive) | 16.9 µM (inactive) | > 100 µM (inactive) |  |  | 3.27 µM (inactive) | 78.7 µM (inactive) | 28.4 µM (inactive)
12 | Cn1c2c(cc(-c3ccccc3)c1=O)COc1ccccc1-2 | 33.3 µM (inactive) | 29 µM (inactive) | 9.04 µM (inactive) | 28.8 µM (inactive) | 19.9 µM (inactive) | 35.5 µM (inactive) |  | 32.5 µM (inactive) | 17.9 µM (inactive) |  | 14.5 µM (inactive) | 36.1 µM (inactive) | 49.1 µM (inactive) | 14 µM (inactive) | 35 µM (inactive) |  | 14.7 µM (inactive) | 15.2 µM (inactive) | 17.5 µM (inactive) | 
13 | CCOC(=O)C1C(=O)CC(C)(O)C(C(=O)OCC)C1c1ccc(O)c(OC)c1 (stereo not given) | > 100 µM (inactive) | > 100 µM (inactive) | > 100 µM (inactive) | > 100 µM (inactive) | > 100 µM (inactive) | > 100 µM (inactive) | > 100 µM (inactive) | > 100 µM (inactive) | > 100 µM (inactive) | > 100 µM (inactive) | > 100 µM (inactive) | > 100 µM (inactive) |  | > 100 µM (inactive) | > 100 µM (inactive) | > 100 µM (inactive) | > 100 µM (inactive) | > 100 µM (inactive) | > 100 µM (inactive) | 
14 | Cc1ccc(-c2c(N)nc(NC#N)nc2CCC(=O)Nc2ccccc2[N+](=O)[O-])cc1 | > 100 µM (inactive) | > 100 µM (inactive) | > 100 µM (inactive) | > 100 µM (inactive) | > 100 µM (inactive) | > 100 µM (inactive) |  | > 100 µM (inactive) | 85.1 µM (inactive) |  | > 100 µM (inactive) | > 100 µM (inactive) | > 100 µM (inactive) | > 100 µM (inactive) | > 100 µM (inactive) |  | > 100 µM (inactive) | > 100 µM (inactive) | > 100 µM (inactive) | 
15 | N#CC(C#N)/N=N/c1ccc(-c2nc3ccccc3s2)cc1 |  | 4.04 µM (inactive) | 7.03 µM (inactive) | 1.48 µM (inactive) | 6.64 µM (inactive) | 6 µM (inactive) |  |  | 2.65 µM (inactive) | 3.54 µM (inactive) | 28 µM (inactive) | 4.23 µM (inactive) | 9.33 µM (inactive) | 4.73 µM (inactive) | 2.78 µM (inactive) | 2.22 µM (inactive) |  | 7 µM (inactive) | 2.74 µM (inactive) | 
16 | O=C(NCCN1CCOCC1)c1ccc(I)cc1 | > 100 µM (inactive) |  | > 100 µM (inactive) |  | > 100 µM (inactive) | > 100 µM (inactive) |  | > 100 µM (inactive) |  | > 100 µM (inactive) | > 100 µM (inactive) |  | > 100 µM (inactive) |  | > 100 µM (inactive) |  | > 100 µM (inactive) | > 100 µM (inactive) | > 100 µM (inactive) | > 100 µM (inactive)
